Reference: the supplement of paper PMC10307832

Legend:
Assay in all cases: relative viability (nuclei count vs DMSO), 5 days (fraction); higher = more cells survive
[1] = compound: CN1CCN(CC1)C2=CC(=C(C=C2)NC3=NC(=C(S3)C(=O)C4=C(C=CC=C4Cl)Cl)N)OC [XMD14-99] + CS(=O)(=O)N1CCN(Cc2cc3nc(-c4cccc5[nH]ncc45)nc(N4CCOCC4)c3s2)CC1 [Pictilisib] (partner 1 µM)
Method in brief: (§1)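 Relative viability divides the nuclei count in treated wells by that in vehicle wells. Lung cancer cell lines were seeded in 1536-well plates, dosed by pin tool the next day, and fixed and stained after 5 days in one step with final 0.05% Triton X-100, 1% formaldehyde and 1 ug/ml Hoechst. Dosing was a single drug or a fixed anchor-drug dose plus five library-drug doses (not always all listed) in √10 steps, and values are medians of duplicate plates imaged at 4×.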

[2] = compound: N[C@@H]1CCCN(c2c(/C=C3\SC(=O)NC3=O)cccc2-c2ccccc2)C1 [AZD1208] + CC(=O)Nc1cccc(-n2c(=O)n(C3CC3)c(=O)c3c(Nc4ccc(I)cc4F)n(C)c(=O)c(C)c32)c1 [Trametinib] (partner 0.02 µM)
Method in brief: as §1

[3] = compound: CN1CCN(CC1)C2=CC(=C(C=C2)NC3=NC(=C(S3)C(=O)C4=C(C=CC=C4Cl)Cl)N)OC [XMD14-99] + CS(=O)(=O)CCNCc1ccc(-c2ccc3ncnc(Nc4ccc(OCc5cccc(F)c5)c(Cl)c4)c3c2)o1 [Lapatinib] (partner 2 µM)
Method in brief: as §1

[4] = compound: CN1CCN(CC1)C2=CC(=C(C=C2)NC3=NC(=C(S3)C(=O)C4=C(C=CC=C4Cl)Cl)N)OC [XMD14-99] + CC(=O)Nc1cccc(-n2c(=O)n(C3CC3)c(=O)c3c(Nc4ccc(I)cc4F)n(C)c(=O)c(C)c32)c1 [Trametinib] (partner 0.02 µM)
Method in brief: as §1

UMC-11 was tested, and the relative viability ([1]; first compound 0.08 µM) was 0.802, the relative viability ([1]; first compound 0.8 µM) was 0.856 and the relative viability ([1]; first compound 2.53 µM) was 0.795. For the same cell line, the relative viability ([1]; first compound 8 µM) was 0.663, the relative viability ([2]; first compound 0.08 µM) was 0.498 and the relative viability ([2]; first compound 0.253 µM) was 0.623. The relative viability ([2]; first compound 0.8 µM) was 0.454, the relative viability ([2]; first compound 2.53 µM) was 0.381 and the relative viability ([2]; first compound 8 µM) was 0.313. The relative viability ([3]; first compound 0.08 µM) was 1.13, the relative viability ([3]; first compound 0.8 µM) was 0.969 and the relative viability ([3]; first compound 2.53 µM) was 0.974. The relative viability ([3]; first compound 8 µM) was 0.744, the relative viability ([4]; first compound 0.08 µM) was 0.744 and the relative viability ([4]; first compound 0.8 µM) was 0.637. The relative viability ([4]; first compound 2.53 µM) was 0.747 and the relative viability ([4]; first compound 8 µM) was 0.645.
